# Assay results reported in US20220117920A1, “N-Aryl Benzenesulfonamides as Protonophores for the Treatment of Cancers, Metabolic Diseases and Traumatic Brain Injury” (University of Kentucky Research Foundation, priority 2019, published 2022).
# Experiments:
# p62 = assay: RT-qPCR of p62 mRNA in Huh7 cells; format: cell-based, human; conditions: Huh7, absence of CQ
# Description: (§1) Total RNA was extracted with miRNeasy mini kit (Qiagen, Germany), and the corresponding cDNA was produced using iScript cDNA synthesis kit (BioRad, USA) from 1 μg of total RNA. Real time quantitative PCR (RT-qPCR) was performed using SsoAdvanced Universal SYBR Green supermix (BioRad, USA) with specific primers: p62 (SQSTM1: 5′-[…]-3′ (SEQ ID NO: 1) and 5′-[…]-3′ (SEQ ID NO: 2)); c-MYC (cMYC: 5′-[…]-3′ (SEQ ID NO: 3) and 5′-[…]-3′ (SEQ ID NO: 4)), Survivin (BIRC5, 5′-[…]-3′ (SEQ ID NO: 5) and 5′-[…]-3′ (SEQ ID NO: 6)), AXIN 2 (AXIN2: 5′-[…]-3′ (SEQ ID NO: 7) and 5′-[…]-3′ (SEQ ID NO: 8)), Cyclin D1 (5′-CCND1: […]-3′ (SEQ ID NO: 9) and 5′-[…]-3′ (SEQ ID NO: 10)), and b2-microglobulin (B2M: 5′-[…]-3′ (SEQ ID NO: 11) and 5′-[…]-3′ (SEQ ID NO: 12)). Transcript levels were normalized to β-actin or […] level as indicated using the ΔΔCt method.
# Huh7 cells [1] = assay: Western blot of autophagy markers LC3II and p62 in Huh7 cells; format: cell-based, human
# Excerpt: (§2) Primary antibodies are described in Table 1.
# Wnt signaling = assay: Wnt reporter assay, stable HEK293T cell line containing TOPFlash reporter, LiCl-activated; format: cell-based, human; conditions: 3 μM
# Excerpt: To identify novel Wnt regulators by high throughput screening, a stable HEK293T cell line containing the TOPFlash reporter was established. To identify Wnt inhibitors that targeted molecular events downstream of β-catenin, we treated these cells with lithium chloride to inhibit GSK3 and to stabilize β-catenin. […] We also validated the results by transient transfection of Super 8× TOPFlash or 8× FOPFlash into HEK293T cells. […] Since the results from the stable and transient transfection are compatible, we used stable cell lines for all of the other experiments.
# Reporter assay. Wnt reporter assay and cell staining assay have been described previously. We subcloned Super 8×TOPFlash (provided by Professor Randall Moon, University of Washington) into the pGL4.83 [hRlucP/Puro] Vector and transfected it into HEK293T cells. A stable HEK293T cell line containing the TOPFlash reporter was established using puromycin selection. To screen Wnt inhibitors that block the downstream signaling transduction pathway of β-catenin, we treated the reporter cells with 25 mM LiCl to stabilize β-catenin and activate Wnt signaling. The potential Wnt inhibitors identified from screening were validated by transfecting TOPFlash or FOPFlash plus control renilla reporters into HEK293T cells, and then treating the cells with DMSO or testing compounds in DMSO solution. The Wnt signaling was activated by LiCl or Wnt3A treatment.
# [2] = test system: Wnt/β-catenin target genes; assay: Expression of downstream β-catenin targets in Huh7 cells (western blot, RT-qPCR); format: cell-based, human; conditions: Huh7, 36 h
# Description: as §2, §1
# Wnt/β-catenin pathway = assay: TOP-Flash TCF4-dependent dual luciferase reporter assay in Huh7 cells; format: cell-based, human; conditions: Huh7, 10 mM LiCl
# Description: Cells were plated at 1×10^5 cells/well in 24-well plates and transiently transfected with 490 ng of luciferase-reporter plasmid and 10 ng of phRL-TK per well using the Turbofect transfection reagent (Thermo Scientific, USA). After 5-6 h post-transfection, cells were treated with drug(s) or DMSO vehicle control for 36 h in the presence or absence of LiCl (10 mM). Luciferase assays were performed using the Dual Luciferase Assay System (Promega, USA) according to manufacturer's instructions.
# [3] = test system: purified mitochondria from mouse liver; assay: Uncoupling assay (OCR) using purified mitochondria from mouse livers; format: biochemical; conditions: 5 μM/1 μM
# Description: All the steps were carried out at 4° C. or on ice. After mice were euthanized with CO2 followed by rapid decapitation, whole liver was quickly dissected out on a cold block and homogenized using a Teflon-glass dounce homogenizer containing isolation buffer (215 mM mannitol, 75 mM sucrose, 0.1% BSA, 20 mM HEPES, 1 mM EGTA, adjusted to pH 7.2 with KOH). The homogenate was transferred to a 2 mL-microcentrifuge tube and spun at 1,300×g for 3 min. The supernatant was transferred to a fresh 2 mL-microcentrifuge tube and spun at 13,000×g for 10 min. The supernatant was discarded, and the crude mitochondrial pellet was resuspended in a 1.5 mL-microcentrifuge tubes and pelleted again at 10,000×g for 10 min. The supernatant was discarded, and the mitochondrial pellets were resuspended in isolation buffer to obtain an approximate concentration ≥10 mg/mL of mitochondria. The absolute protein concentration was determined using a bicinchoninic acid (BCA) protein assay kit (Pierce, Cat #23,227) by recording absorbance at 560 nm on a Biotek Synergy HT plate reader (Winooski, Vt., USA).
# Mitochondrial Bioenergetics Measurements. Mitochondrial bioenergetic measurements were carried out using a Seahorse XFe96 Extracellular Flux Analyzer (Agilent Technologies, Santa Clara, Calif., USA) to measure oxygen consumption rate (OCR) during various states of respiration. The OCR were measured in the presence of different substrates, inhibitors and uncouplers of the electron transport chain using previous methods with slight modifications. The stocks used for the assays were 500 mM pyruvate, 250 mM malate, and 30 mM adenosine diphosphate (ADP), and 1 M succinate (pH for all was adjusted to 7.2). […] Stock solutions of FH535, Y3, FH535-M, and Y3-M were prepared at 5 mM in 100% DMSO. As per the instructions from XFe96 Extracellular Flux kit, the sensor cartridge was hydrated with water and kept at 37° C. overnight before the experiment. One hour before the assay was conducted, water was removed from assay plates and XF calibrant was added before re-incubation. The injection ports A to D of the sensor cartridge were loaded with 25 μL of different combinations of the above substrates/inhibitors/uncouplers as follows. Before loading, the stocks were diluted appropriately in the respiration buffer (RB) (125 mM KCl, 0.1% BSA, 20 mM HEPES, 2 mM MgCl2, and 2.5 mM KH2PO4; pH 7.2) to get the final concentrations in the respiration chamber of 5 μM pyruvate, 2.5 μM malate, 10 μM of succinate and 1 μM ADP (via Port A), 1 μM oligomycin A (via Port B), 4 μM FCCP or 5 μM/1 μM FH535 or 5 μM/1 μM Y3 or 5 μM/1 μM FH535-M or 5 μM/1 μM Y3-M (via Port C) and 0.1 μM antimycin A (via Port D) starting with the initial volume of 175 μL RB in the chamber and diluting it to 9×, 10×, 11× and 12× with every injection through ports A to D, respectively. Once loaded, the sensor cartridge was placed into the Seahorse XFe96 Flux Analyzer for automated calibration. Seahorse Standard XFe96 assay plates were used for loading mitochondria. Initially total mitochondria were diluted to 6 μg/30 μL in RB and 30 μL was loaded in each well resulting in 6 μg mitochondria/well. The assay plates were centrifuged at 3,000 rpm for 4 min at 4° C. to adhere liver mitochondria at the bottom of the wells. After centrifugation, 145 μL RB (pre-incubated to 37° C.) was added without disturbing the mitochondrial layer to obtain a final volume of 175 μL per well. […]
# AMPK = assay: Western blot of AMPK (T172) and ACC (S79) phosphorylation in CRC cells; format: cell-based, human
# Description: Biochemistry. Western blotting: Cells were lysed in the appropriate volume of lysis buffer: 50 mM HEPES, 100 mM NaCl, 2 mM EDTA, 1% (v/v) glycerol, 50 mM NaF, 1 mM Na3VO4, 1% (v/v) Triton X-100, with protease inhibitors. The following antibodies were used: AMPK (Cell Signaling, 2532, Cell Signaling Technologies, Danver, Mass., USA), pAMPK (Cell Signaling, 2535), ACC (Cell Signaling, 3676), pACC (Cell Signaling, 11818), Actin (Sigma, A1978). Antibodies for Axin 2, c-Myc and Cyclin D1 have been described previously. ATP analysis: Cells growing in 12-well plates were treated with DMSO or inhibitors in DMSO solution and lysed by adding 1 mL boiling doubly distilled water. Supernatants were analyzed by luminescence using ATP Determination Kit (Invitrogen, A22066; Thermo Fisher Scientific, Waltham, Mass., USA).
# [4] = test system: mitochondrial ATP production; assay: Agilent Seahorse XF Real-Time ATP Rate Assay; format: cell-based, human; conditions: 3 μM
# Description: Seahorse assay. Approximately 3×10^4 cells were seeded in XF96 Cell Culture microplate (80 μL of 3.75×10^5 cells/mL) for all experiments. On the next day, cell culture media were replaced with either Seahorse XF modified media with 25 mM glucose and 1 mM pyruvate. After media exchange, cells were treated with 1 μM of oligomycin A, 1.0 μM FCCP and mixture of 1.0 μM of rotenone and 1.0 μM of antimycin A in standard mitochondrial stress test conditions. To determine the uncoupler effects, FCCP was replaced with an equal volume of DMSO, or a compound to be tested in DMSO solution. ATP production rate was analyzed using Agilent Seahorse XF Real-Time ATP Rate Assay.
# Huh7 cells [5] = assay: Seahorse mitochondrial stress test (OCR) in Huh7 cells; format: cell-based, human; conditions: Huh7, 24 h
# Description: Oxygen Consumption Rates (OCR) were measured on an XF-96 Extracellular Flux Analyzer (Seahorse Bioscience) using the protocol and conditions optimized for HCC cells as previously described by our group. Briefly, the experiments were performed by seeding 10,000 and 20,000 Huh7 cells per well in XFe 96 well-plates 36 h before the experiment. Cells were treated for 24 h with FH535, FH535-N or vehicle control. In OCR experiments the media was supplemented with 25 mM Glucose and 1 mM Pyruvate just before the assay. After minimal incubation time (˜20-30 min in non-CO2 37° C. incubator) mitochondrial stress test was initiated. […] All reagents used in the Seahorse experiments were purchased from Sigma-Aldrich. Analyses of data were performed with Wave 2.2 software (Seahorse Bioscience), Excel (Microsoft Office 2013) and Prism 7.0 (GraphPad Software).
compound,measurement,setting,value
"Cc1cc([N+](=O)[O-])ccc1NS(=O)(=O)c1cc(Cl)ccc1Cl [FH535, 2,5-dichloro-N-(2-methyl-4-nitrophenyl)benzenesulfonamide]",p62 mRNA levels,p62,increase of p62 mRNA levels
same,"accumulation of LC3II in the presence of CQ (autophagic flux, ΔLC3II)","Huh7 cells [1]; Huh7, 50 μM CQ 8 h",reduced accumulation of LC3II in the presence of CQ
same,LC3II protein levels,"Huh7 cells [1]; Huh7, 40 h",increased the lipid-bound expression of LC3II levels in a dose-dependent manner
same,p62 protein levels,"Huh7 cells [1]; Huh7, 40 h",increased
same,inhibition of Wnt signaling,Wnt signaling,inhibited Wnt signaling
same,expression of downstream Wnt/β-catenin target genes,[2],reduced expression of endogenous downstream β-catenin target genes
same,Wnt/β-catenin transcriptional activity (TOP-Flash),Wnt/β-catenin pathway,target the Wnt/β-catenin signaling pathway
same,uncoupling: OCR blocked by oligomycin,[3],increased OCR in dose-dependent manner
same,time to AMPK activation after treatment,AMPK,≤ 15 min
same,ACC (S79 phosphorylation),AMPK; 3 μM,induced AMPK phosphorylation and ACC phosphorylation
same,AMPK activity (T172 phosphorylation),AMPK; 3 μM,activated AMPK
same,rate of ATP production in mitochondria,[4],decreased the rates of ATP production in mitochondria
same,Proton Leak,Huh7 cells [5],enhanced Proton Leak
